# According to patent EP1077967B1, “BIPHENYL OXO-ACETIC ACIDS USEFUL IN THE TREATMENT OF INSULIN RESISTANCE AND HYPERGLYCEMIA” (Wyeth, priority 1998, dated 1999):
# Where two headings read alike, the source gives them in different places.
# Tests used:
# [1] = tested on: rat hepatic microsomal PTPases; test: Inhibition of tri-phosphorylated insulin receptor dodecaphosphopeptide dephosphorylation by rat hepatic PTPases (malachite green); assay type: biochemical; settings: rat liver microsomal fraction; for % Change from Control: PTPase activity, compound at 50 µM; for IC50: % Change from Control
# Human recombinant PTP1B = target: T1, Human recombinant PTP1B (Homo sapiens, UniProt P18031); test: Inhibition of tri-phosphorylated insulin receptor dodecaphosphopeptide dephosphorylation by hPTP1B (malachite green); assay type: biochemical; settings: recombinant PTP1B, dodecaphosphopeptide substrate
# T1 construct: made in house
# T1 sequence (P18031 1-435): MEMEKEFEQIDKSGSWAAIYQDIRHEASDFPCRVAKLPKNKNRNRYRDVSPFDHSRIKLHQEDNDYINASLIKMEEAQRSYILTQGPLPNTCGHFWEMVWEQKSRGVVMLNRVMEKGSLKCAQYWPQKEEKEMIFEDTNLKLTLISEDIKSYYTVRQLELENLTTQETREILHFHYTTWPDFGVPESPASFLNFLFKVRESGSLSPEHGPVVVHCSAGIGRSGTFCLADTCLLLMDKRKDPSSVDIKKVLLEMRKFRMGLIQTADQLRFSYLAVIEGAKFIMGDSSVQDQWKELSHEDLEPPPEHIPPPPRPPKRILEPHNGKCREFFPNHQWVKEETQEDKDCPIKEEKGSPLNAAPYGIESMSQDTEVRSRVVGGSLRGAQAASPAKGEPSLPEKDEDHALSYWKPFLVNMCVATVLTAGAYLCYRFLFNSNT
# diabetic (ob/ob) mice = test: Blood glucose lowering in diabetic (ob/ob) mice; assay type: in vivo; settings: Mus musculus, po, cells marked a = no significant activity (p<0.05) at this dose
# [2] = read-out: % Change Insulin from Vehicle
# [3] = plasma glucose, read-out: % Change Glucose from Vehicle
Compound,% Change from Control [1],IC50 (Human recombinant PTP1B),IC50 [1],change in vivo at 100 mg/kg (diabetic (ob/ob) mice; [2]),change in vivo at 100 mg/kg (diabetic (ob/ob) mice; [3]),"change in vivo at 25 mg/kg (diabetic (ob/ob) mice; dose 25 mg/Kg, plasma glucose, read-out: % Change Glucose from Vehicle)"
"CCCCc1oc2ccccc2c1-c1ccc(-c2ccc(OC(Cc3ccccc3)C(=O)O)cc2)cc1 (stereo not drawn) [Example 10, 2-[4'-(2-Butyl-benzofuran-3-yl)-biphenyl-4-yloxy]-3-phenyl-propionic acid]",-72%,440 nM,,-51.9%,-34.2%,
"O=C(O)C(Cc1ccccc1)Oc1ccc(-c2ccc(-c3c(Cc4ccccc4)oc4ccccc34)cc2)cc1 (stereo not drawn) [Example 11, 2-[4'-(2-Benzyl-benzofuran-3-yl)-biphenyl-4-yloxy]-3-phenyl-propionic acid]",-61%,270 nM,,-44.9%,-40.4%,
"O=C(O)[C@@H](Cc1ccccc1)Oc1ccc(-c2ccc(-c3c(Cc4ccccc4)oc4ccccc34)cc2)cc1 [Example 15, (2R)-2-[4'-(2-Benzyl-benzofuran-3-yl)-biphenyl-4-yloxy]-3-phenyl-propionic acid]",-59%,348 nM,,4.1%,-35%,
"C[C@@H](Oc1ccc(-c2ccc(-c3c(Cc4ccccc4)oc4ccccc34)cc2)cc1)C(=O)O [Example 17, (2R)-2-[4'-(2-Benzyl-benzofuran-3-yl)-biphenyl-4-yloxy]-propionic acid]",-63%,1320 nM,,-94.4%,13.7%,

# Now those with a lower IC50 (Human recombinant PTP1B), led by results:
% Change from Control [1],IC50 (Human recombinant PTP1B),IC50 [1],Compound,change in vivo at 100 mg/kg (diabetic (ob/ob) mice; [2]),change in vivo at 100 mg/kg (diabetic (ob/ob) mice; [3]),"change in vivo at 25 mg/kg (diabetic (ob/ob) mice; dose 25 mg/Kg, plasma glucose, read-out: % Change Glucose from Vehicle)"
-50%,176 nM,,"CCCCc1sc2ccccc2c1-c1ccc(-c2ccc(OC(Cc3ccccc3)C(=O)O)cc2)cc1 (stereo not drawn) [Example 12, 2-[4'-(2-Butyl-benzo[b]thiopen-3-yl)-biphenyl-4-yloxy]-3-phenyl-propionic acid]",-15.8%,-27.5%,
,123 nM,21400 nM,O=C(O)[C@@H](Cc1ccccc1)Oc1ccc(-c2ccc(-c3c(Cc4ccc(F)cc4)sc4ccccc34)cc2)cc1 [Example 19],1.1%,-27.7%,
,122 nM,20600 nM,"O=C(O)[C@@H](Cc1ccccc1)Oc1ccc(-c2ccc(-c3c(Cc4ccc(O)c(O)c4)sc4ccccc34)cc2)cc1 [Example 28, (2R)-2-{4'-[2-(3,4-Dihydroxy-benzyl)-benzo[b]thiophene-3-yl)-biphenyl-4-yloxy]-3-phenyl-propionic acid]",,,-20%
